From patent publication US12048706B2, “Methods of treating epilepsy or status epilepticus” (Sage Therapeutics, Inc., priority 2012, dated 2024)
Read-outs that look alike come from different tables or passages of the source.

Key:
[1] = system: patients with status epilepticus; settings: cited from earlier work
patient in SRSE = test: Treatment of one patient in super-refractory status epilepticus (SRSE) with allopregnanolone infusion; type: in vivo, human
Source text: A physician at the Massachusetts General Hospital, Boston, Mass. treated one patient in SRSE with allopregnanolone in a hydroxyl-propyl beta cyclodextrin formulation. The patient was a previously-healthy, person, college graduate who was started on allopregnanolone on their 92nd day of SRSE.
During their hospital course, the patient had previously been treated with propofol, midazolam, lacosamide, phenytoin, phenobarbital, ketamine, clonazepam, levetiracetam, valproate, pentobarbital, topiramate, steroids, pyridoxine, coq-10, lidocaine, electroconvulsive therapy (ECT), bromides, hypothermia, a ketogenic diet, and acupuncture.
(§1) At the time that allopregnanolone was started, the patient was still in a pentobarbital-induced coma as well as receiving lacosamide, phenobarbital, clonazepam, and levetiracetam. The patient was started on allopregnanolone at a continuous infusion rate of 86 μg/kg/h for 5 days, after which the allopregnanolone was rapidly tapered and discontinued over a 24-hour period. Plasma samples were drawn at 5 h, 29 h, 53 h, 77 h, 101 h, 125 h, 149 h, and 173 h and are shown on FIG. 2. The plasma level rose and by Day 2 had achieved the target level of 150 nmoles/L. The pentobarbital was tapered and discontinued over the first 36 hours of allopregnanolone therapy. […] They continued to improve and was conversant, making jokes, and in a rehabilitation facility as of April 2013.

[2] = Plasma exposure of allopregnanolone from human SE study; type: in vivo; settings: by Day 2; continuous IV infusion 86 μg/kg/h; single SRSE patient
Procedure: FIG. 2. Plasma exposure of allopregnanolone from human SE study. Plasma concentration profile over time of allopregnanolone in a single patient. The patient was dosed allopregnanolone (ALLO) at 1.5 mg/mL in 6% hydroxypropyl-β-cyclodextrin in 0.9% sodium chloride intravenously for 5 days (120 h). The infusion rate was 86 μg/kg/h. The patient was dosed 5.6 mg/h of allopregnanolone at 3.8 mL/h. Plasma concentration was analyzed 2 hours prior to the start of infusion and then 52, 76, 100, 124, and 148 hours post-infusion.
as §1

O=C1Nc2ccc(Cl)cc2C(c2ccccc2Cl)=NC1O (stereo not drawn) [lorazepam]
patients who did not respond to first line treatment ([1]; intravenous (IV) treatment): 36.6%

Cc1ncc2n1-c1ccc(Cl)cc1C(c1ccccc1F)=NC2 [midazolam]
patients who did not respond to first line treatment ([1]; intramuscular (IM) treatment): 26.6%

CC(=O)[C@H]1CC[C@H]2[C@@H]3CC[C@H]4C[C@H](O)CC[C@]4(C)[C@H]3CC[C@]12C [allopregnanolone, 3 alpha-hydroxy-5 alpha-pregnan-20-one]
adverse events attributed to allopregnanolone (patient in SRSE; 86 μg/kg/h for 5 days, then taper over 24 hours): no adverse events
EEG (patient in SRSE; 36-hour time point, patient entirely weaned from pentobarbital, infusion 86 μg/kg/h): had begun to normalize
clinical state of the patient (patient in SRSE; at 72 hours, infusion 86 μg/kg/h): awake and followed simple midline commands
plasma level [2]: 150 nM
